Reference: PubChem BioAssay (NCI)
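Exposure lasted 48 hours, with cells grown in 96-well plates and compounds tested at five concentrations. TGI: total growth inhibition.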

What was measured:
Test in all cases: growth of human tumour cells (NCI), 48 h
786-0 renal = test system: 786-0 renal
A498 renal = test system: A498 renal
A549 NSCLC = test system: A549 NSCLC
ACHN renal = test system: ACHN renal
BT-549 breast = test system: BT-549 breast
CAKI-1 renal = test system: CAKI-1 renal
CCRF-CEM leukemia = test system: CCRF-CEM leukemia
COLO 205 colon = test system: COLO 205 colon
DU-145 prostate = test system: DU-145 prostate
EKVX NSCLC = test system: EKVX NSCLC
HCC-2998 colon = test system: HCC-2998 colon
HCT-116 colon = test system: HCT-116 colon
HCT-15 colon = test system: HCT-15 colon
HOP-62 NSCLC = test system: HOP-62 NSCLC
HOP-92 NSCLC = test system: HOP-92 NSCLC
HS 578T breast = test system: HS 578T breast
HT29 colon = test system: HT29 colon
IGROV1 ovarian = test system: IGROV1 ovarian
K-562 leukemia = test system: K-562 leukemia
KM12 colon = test system: KM12 colon
LOX IMVI melanoma = test system: LOX IMVI melanoma
M14 melanoma = test system: M14 melanoma
MALME-3M melanoma = test system: MALME-3M melanoma
MCF7 breast = test system: MCF7 breast
MDA-MB-231 breast = test system: MDA-MB-231 breast
MDA-MB-435 = test system: MDA-MB-435
MDA-N = test system: MDA-N
MOLT-4 leukemia = test system: MOLT-4 leukemia
NCI-H226 lung = test system: NCI-H226 lung
NCI-H23 lung = test system: NCI-H23 lung
NCI-H460 lung = test system: NCI-H460 lung
NCI-H522 lung = test system: NCI-H522 lung
NCI/ADR-RES ovarian = test system: NCI/ADR-RES ovarian
OVCAR-3 ovarian = test system: OVCAR-3 ovarian
OVCAR-4 ovarian = test system: OVCAR-4 ovarian
OVCAR-5 ovarian = test system: OVCAR-5 ovarian
OVCAR-8 ovarian = test system: OVCAR-8 ovarian
PC-3 prostate = test system: PC-3 prostate
RPMI-8226 leukemia = test system: RPMI-8226 leukemia
RXF 393 renal = test system: RXF 393 renal
SF-268 CNS = test system: SF-268 CNS
SF-295 CNS = test system: SF-295 CNS
SF-539 CNS = test system: SF-539 CNS
SK-MEL-2 melanoma = test system: SK-MEL-2 melanoma
SK-MEL-28 melanoma = test system: SK-MEL-28 melanoma
SK-MEL-5 melanoma = test system: SK-MEL-5 melanoma
SK-OV-3 ovarian = test system: SK-OV-3 ovarian
SN12C renal = test system: SN12C renal
SNB-19 CNS = test system: SNB-19 CNS
SNB-75 CNS = test system: SNB-75 CNS
SR leukemia = test system: SR leukemia
SW-620 colon = test system: SW-620 colon
T-47D breast = test system: T-47D breast
TK-10 renal = test system: TK-10 renal
U251 CNS = test system: U251 CNS
UACC-257 melanoma = test system: UACC-257 melanoma
UACC-62 melanoma = test system: UACC-62 melanoma
UO-31 renal = test system: UO-31 renal

Measured: TGI

CN(N=O)c1nc2c(C(N)=O)ncn2s1
> 100 µM: all assays above
